How the values were obtained:
[1] = system: BRSNN: oilseed rape, canola (Brassica napus); assay: Post-Emergent Test II herbicidal activity; assay type: in vivo; conditions: post-emergence, 336 h, 14 days, read-out: Visual Growth Reduction (%) 14 Days After Application BRSNN; for pest or weed control at 35 g/ha: 35 g ai/ha; for pest or weed control at 70 g/ha: 70 g ai/ha; for pest or weed control at 140 g/ha: 140 g ai/ha
Outline: (§1)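 Seedlings raised 7-21 d under greenhouse conditions were treated at the first or second true leaf stage. Compounds, formulated with crop oil concentrate and surfactant, were applied overhead at 187 L/ha across a serial dilution series, with solvent-blank controls. Percent visual injury was scored after 14 d.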

[2] = system: ABUTH: velvetleaf (Abutilon theophrasti); assay: Post-Emergent Test II herbicidal activity; assay type: in vivo; conditions: post-emergence, 336 h, 14 days, read-out: Visual Growth Reduction (%) 14 Days After Application ABUTH; for pest or weed control at 35 g/ha: 35 g ai/ha; for pest or weed control at 70 g/ha: 70 g ai/ha; for pest or weed control at 140 g/ha: 140 g ai/ha
Outline: as §1

[3] = system: ORYSA: rice (Oryza sativa); assay: Post-Emergent Test II herbicidal activity; assay type: in vivo; conditions: post-emergence, 336 h, 14 days, read-out: Visual Growth Reduction (%) 14 Days After Application ORYSA; for pest or weed control at 35 g/ha: 35 g ai/ha; for pest or weed control at 70 g/ha: 70 g ai/ha; for pest or weed control at 140 g/ha: 140 g ai/ha
Outline: as §1

[4] = system: TRZAS: wheat, spring (Triticum aestivum); assay: Post-Emergent Test II herbicidal activity; assay type: in vivo; conditions: post-emergence, 336 h, 14 days, read-out: Visual Growth Reduction (%) 14 Days After Application TRZAS; for pest or weed control at 35 g/ha: 35 g ai/ha; for pest or weed control at 70 g/ha: 70 g ai/ha; for pest or weed control at 140 g/ha: 140 g ai/ha
Outline: as §1

[5] = system: EPHHL: wild poinsettia (Euphorbia heterophylla); assay: Post-Emergent Test II herbicidal activity; assay type: in vivo; conditions: post-emergence, 336 h, 14 days, read-out: Visual Growth Reduction (%) 14 Days After Application EPHHL; for pest or weed control at 35 g/ha: 35 g ai/ha; for pest or weed control at 70 g/ha: 70 g ai/ha; for pest or weed control at 140 g/ha: 140 g ai/ha
Outline: as §1

[6] = system: ZEAMX: maize, corn (Zea mays); assay: Post-Emergent Test II herbicidal activity; assay type: in vivo; conditions: post-emergence, 336 h, 14 days, read-out: Visual Growth Reduction (%) 14 Days After Application ZEAMX; for pest or weed control at 35 g/ha: 35 g ai/ha; for pest or weed control at 70 g/ha: 70 g ai/ha; for pest or weed control at 140 g/ha: 140 g ai/ha
Outline: as §1

[7] = system: ECHCG: barnyardgrass (Echinochloa crus-galli); assay: Post-Emergent Test II herbicidal activity; assay type: in vivo; conditions: post-emergence, 336 h, 14 days, read-out: Visual Growth Reduction (%) 14 Days After Application ECHCG; for pest or weed control at 35 g/ha: 35 g ai/ha; for pest or weed control at 70 g/ha: 70 g ai/ha; for pest or weed control at 140 g/ha: 140 g ai/ha
Outline: as §1

[8] = system: SETFA: giant foxtail (Setaria faberi); assay: Post-Emergent Test II herbicidal activity; assay type: in vivo; conditions: post-emergence, 336 h, 14 days, read-out: Visual Growth Reduction (%) 14 Days After Application SETFA; for pest or weed control at 35 g/ha: 35 g ai/ha; for pest or weed control at 70 g/ha: 70 g ai/ha; for pest or weed control at 140 g/ha: 140 g ai/ha
Outline: as §1

[9] = system: AMARE: redroot pigweed (Amaranthus retroflexus); assay: Post-Emergent Test II herbicidal activity; assay type: in vivo; conditions: post-emergence, 336 h, 14 days, read-out: Visual Growth Reduction (%) 14 Days After Application AMARE; for pest or weed control at 35 g/ha: 35 g ai/ha; for pest or weed control at 70 g/ha: 70 g ai/ha; for pest or weed control at 140 g/ha: 140 g ai/ha
Outline: as §1

[10] = system: CHEAL: lambsquarters (Chenopodium album); assay: Post-Emergent Test II herbicidal activity; assay type: in vivo; conditions: post-emergence, 336 h, 14 days, read-out: Visual Growth Reduction (%) 14 Days After Application CHEAL; for pest or weed control at 35 g/ha: 35 g ai/ha; for pest or weed control at 70 g/ha: 70 g ai/ha; for pest or weed control at 140 g/ha: 140 g ai/ha
Outline: as §1

[11] = system: CYPES: yellow nutsedge (Cyperus esculentus); assay: Post-Emergent Test II herbicidal activity; assay type: in vivo; conditions: post-emergence, 336 h, 14 days, read-out: Visual Growth Reduction (%) 14 Days After Application CYPES; for pest or weed control at 35 g/ha: 35 g ai/ha; for pest or weed control at 70 g/ha: 70 g ai/ha; for pest or weed control at 140 g/ha: 140 g ai/ha
Outline: as §1

[12] = system: HELAN: sunflower (Helianthus annuus); assay: Post-Emergent Test II herbicidal activity; assay type: in vivo; conditions: post-emergence, 336 h, 14 days, read-out: Visual Growth Reduction (%) 14 Days After Application HELAN; for pest or weed control at 35 g/ha: 35 g ai/ha; for pest or weed control at 70 g/ha: 70 g ai/ha; for pest or weed control at 140 g/ha: 140 g ai/ha
Outline: as §1

SMILES	melting point	pest or weed control at 35 g/ha [1]	pest or weed control at 70 g/ha [1]	pest or weed control at 140 g/ha [1]	pest or weed control at 35 g/ha [2]	pest or weed control at 70 g/ha [2]	pest or weed control at 140 g/ha [2]	pest or weed control at 35 g/ha [3]	pest or weed control at 70 g/ha [3]	pest or weed control at 140 g/ha [3]	pest or weed control at 35 g/ha [4]	pest or weed control at 70 g/ha [4]	pest or weed control at 140 g/ha [4]	pest or weed control at 35 g/ha [5]	pest or weed control at 70 g/ha [5]	pest or weed control at 140 g/ha [5]	pest or weed control at 35 g/ha [6]	pest or weed control at 70 g/ha [6]	pest or weed control at 140 g/ha [6]	pest or weed control at 35 g/ha [7]	also measured
COC(=O)c1nc(-c2cc3nonc3cc2F)c(F)c(N)c1Cl [Compound 3, Methyl 4-amino-3-chloro-5-fluoro-6-(6-fluorobenzo[c][1,2,5]oxadiazol-5-yl)picolinate]	180 to 182 °C	85 to 94%	85 to 94%	95 to 100%	45 to 59%	0 to 29%	0 to 29%	0 to 29%	0 to 29%	0 to 29%	45 to 59%	45 to 59%	60 to 74%	45 to 59%	45 to 59%	60 to 74%	60 to 74%	60 to 74%	75 to 84%	95 to 100%	pest or weed control at 70 g/ha [7]: 95 to 100%; pest or weed control at 140 g/ha [7]: 75 to 84%; pest or weed control at 35 g/ha [8]: 45 to 59%; pest or weed control at 70 g/ha [8]: 45 to 59%; pest or weed control at 140 g/ha [8]: 45 to 59%; pest or weed control at 35 g/ha [9]: 95 to 100%; pest or weed control at 70 g/ha [9]: 95 to 100%; pest or weed control at 140 g/ha [9]: 95 to 100%; pest or weed control at 35 g/ha [10]: 85 to 94%; pest or weed control at 70 g/ha [10]: 85 to 94%; pest or weed control at 140 g/ha [10]: 85 to 94%; pest or weed control at 35 g/ha [11]: 60 to 74%; pest or weed control at 70 g/ha [11]: 95 to 100%; pest or weed control at 140 g/ha [11]: 95 to 100%; pest or weed control at 35 g/ha [12]: 85 to 94%; pest or weed control at 70 g/ha [12]: 85 to 94%; pest or weed control at 140 g/ha [12]: 95 to 100%
COC(=O)c1nc(-c2cc3nonc3cc2F)cc(N)c1Cl [Compound 4, Methyl 4-amino-3-chloro-6-(6-fluorobenzo[c][1,2,5]oxadiazol-5-yl)picolinate]	199 to 201 °C	85 to 94%	95 to 100%	95 to 100%	85 to 94%	95 to 100%	95 to 100%	0 to 29%	0 to 29%	30 to 44%	60 to 74%	75 to 84%	75 to 84%	95 to 100%	95 to 100%	95 to 100%	85 to 94%	85 to 94%	85 to 94%	85 to 94%	pest or weed control at 70 g/ha [7]: 95 to 100%; pest or weed control at 140 g/ha [7]: 85 to 94%; pest or weed control at 35 g/ha [8]: 60 to 74%; pest or weed control at 70 g/ha [8]: 60 to 74%; pest or weed control at 140 g/ha [8]: 60 to 74%; pest or weed control at 35 g/ha [9]: 95 to 100%; pest or weed control at 70 g/ha [9]: 95 to 100%; pest or weed control at 140 g/ha [9]: 95 to 100%; pest or weed control at 35 g/ha [10]: 85 to 94%; pest or weed control at 70 g/ha [10]: 95 to 100%; pest or weed control at 140 g/ha [10]: 95 to 100%; pest or weed control at 35 g/ha [11]: 95 to 100%; pest or weed control at 70 g/ha [11]: 95 to 100%; pest or weed control at 140 g/ha [11]: 95 to 100%; pest or weed control at 35 g/ha [12]: 85 to 94%; pest or weed control at 70 g/ha [12]: 85 to 94%; pest or weed control at 140 g/ha [12]: 85 to 94%

— patent US9006250B2, “4-amino-6-(heterocyclic)picolinates and 6-amino-2-(heterocyclic)pyrimidine-4-carboxylates and their use as herbicides” (Dow AgroSciences, LLC, priority 2013, dated 2015)
